The assay deals with T1, human SLC6A19 and TMEM27 (Homo sapiens, UniProt Q695T7).
T1 construct: expressed in transfected cells
T1 sequence (Q695T7 1-634): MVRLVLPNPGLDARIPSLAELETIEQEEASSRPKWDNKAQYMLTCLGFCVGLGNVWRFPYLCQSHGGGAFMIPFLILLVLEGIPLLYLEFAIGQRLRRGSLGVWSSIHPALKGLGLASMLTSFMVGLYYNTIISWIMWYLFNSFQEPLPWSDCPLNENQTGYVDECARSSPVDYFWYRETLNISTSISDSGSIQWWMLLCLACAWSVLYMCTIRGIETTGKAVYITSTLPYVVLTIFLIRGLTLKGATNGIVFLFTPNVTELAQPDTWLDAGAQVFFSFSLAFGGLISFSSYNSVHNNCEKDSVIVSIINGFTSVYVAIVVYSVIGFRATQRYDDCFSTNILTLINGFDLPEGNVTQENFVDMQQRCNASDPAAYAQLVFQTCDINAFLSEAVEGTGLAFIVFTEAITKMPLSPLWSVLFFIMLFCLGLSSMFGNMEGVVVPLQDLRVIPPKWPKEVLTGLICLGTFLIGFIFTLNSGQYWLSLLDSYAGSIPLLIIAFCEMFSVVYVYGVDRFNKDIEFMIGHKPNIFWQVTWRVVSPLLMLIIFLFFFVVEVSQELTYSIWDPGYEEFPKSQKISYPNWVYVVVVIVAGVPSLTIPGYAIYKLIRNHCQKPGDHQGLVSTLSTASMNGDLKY
T1 sequence (Q9HBJ8 15-222 partner): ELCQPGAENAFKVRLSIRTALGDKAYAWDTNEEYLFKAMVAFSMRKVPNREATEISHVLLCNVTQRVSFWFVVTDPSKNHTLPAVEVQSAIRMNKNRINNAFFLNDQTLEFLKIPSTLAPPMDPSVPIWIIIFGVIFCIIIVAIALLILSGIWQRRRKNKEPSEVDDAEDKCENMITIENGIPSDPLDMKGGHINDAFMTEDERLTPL
In words: Radiolabelled (3H) leucine uptake in CHO cells with doxycycline-inducible expression of human SLC6A19 and TMEM27 (Example B-1). Format: cell-based. Particulars: CHO cells with doxycycline-inducible expression of human SLC6A19 and TMEM27, read-out: SLC6A19_Radioligand Uptake Assay IC50. The protocol: The flasks were then incubated (humidified, 37° C. with 5% CO2) for 2 minutes. After incubation, 10 mL of pre-warmed cell culture media was added to each flask. The cell suspension was collected and centrifuged for 5 minutes at 200×g. The supernatant was aspirated and the pellet was resuspended in 5 mL pre-warmed cell culture media. The resuspended cells were counted using the Countess Cell Counting Chamber (Invitrogen) and the cell concentration of the suspension was readjusted to 1 million live cells/mL using pre-warmed cell culture media. […] Assay plates were then incubated (humidified, 37° C. with 5% CO2) for 18 hours. After incubation, the media was aspirated and the wells were washed 4 times with pre-warmed HBSS (Sigma-Aldrich, H8264-1L) using an Apricot S-Pipette S2 (Apricot Designs), such that 5 uL/well HBSS was remaining at the end of each wash. […] At this step, the final in-well DMSO concentration in the assay plate is 0.5%. All compounds were plated in a duplicate 8-point dilution series that consisted of 3-fold dilutions. The plates were incubated with compound (humidified, 37° C. with 5% CO2) for 1 hour. […] The plates were then incubated (humidified, 37° C. with 5% CO2) on a plate shaker at 200 rpm for 2 hours. After incubation, the plates were removed from the shaker and kept at room temperature for 15 minutes. Liquid scintillation analysis was performed using the MicroBeta2 Microplate Counter (Perkin Elmer). Activity (%) was derived by normalizing the average of positive control compound treated wells to 0% and the average of DMSO (negative control) wells to 100%. Collaborative Drug Discovery software was used for graphing data.
For `Cc1cc(COc2cc3[nH]c(CNC(=O)[C@H]4CC[C@@H]4O)cc3cc2Cl)on1` (racemic) [Compound 248, (1R,2R)-N-((5-chloro-6-((3-methylisoxazol-5-yl)methoxy)-1H-indol-2-yl)methyl)-2-hydroxycyclobutane-1-carboxamide and (1S,2S)-N-((5-chloro-6-((3-methylisoxazol-5-yl)methoxy)-1H-indol-2-yl)methyl)-2-hydroxycyclobutane-1-carboxamide], the IC50 (usually the concentration that inhibits the measured activity by half) worked out at 0.627 µM.
For the compound `Cc1cc(COc2cc3[nH]c(CNC(=O)[C@H]4C[C@@H]5CC[C@H]4O5)cc3cc2Cl)on1` (racemic) [Compound 297, (1R,2S,4S)-N-((5-chloro-6-((3-methylisoxazol-5-yl)methoxy)-1H-indol-2-yl)methyl)-7-oxabicyclo[2.2.1]heptane-2-carboxamide and (1S,2R,4R)-N-((5-chloro-6-((3-methylisoxazol-5-yl)methoxy)-1H-indol-2-yl)methyl)-7-oxabicyclo[2.2.1]heptane-2-carboxamide], the IC50 stood at 1.02 µM.
On to `CC(NC(=O)C1(C)CC1)c1cc2cc(Cl)c(OCc3cscn3)cc2[nH]1` (racemic) [Compound 347, (S)-N-(1-(5-chloro-6-(thiazol-4-ylmethoxy)-1H-indol-2-yl)ethyl)-1-methylcyclopropane-1-carboxamide and (R)-N-(1-(5-chloro-6-(thiazol-4-ylmethoxy)-1H-indol-2-yl)ethyl)-1-methylcyclopropane-1-carboxamide], for which the IC50 stood at 1.05 µM.
As for `O=C(NCc1cc2cc(Cl)c(OCc3cscn3)cc2[nH]1)N1CCC1CO` (racemic) [Compound 365, (S)-N-((5-chloro-6-(thiazol-4-ylmethoxy)-1H-indol-2-yl)methyl)-2-(hydroxymethyl)azetidine-1-carboxamide and (R)-N-((5-chloro-6-(thiazol-4-ylmethoxy)-1H-indol-2-yl)methyl)-2-(hydroxymethyl)azetidine-1-carboxamide], the IC50 is 0.991 µM.
Consider `O=C(NCc1cc2cc(Cl)c(OCc3cscn3)cc2[nH]1)N1CCC(O)C1` (racemic) [Compound 366, (R)-N-((5-chloro-6-(thiazol-4-ylmethoxy)-1H-indol-2-yl)methyl)-3-hydroxypyrrolidine-1-carboxamide and (S)-N-((5-chloro-6-(thiazol-4-ylmethoxy)-1H-indol-2-yl)methyl)-3-hydroxypyrrolidine-1-carboxamide], for which the IC50 is 1.53 µM.
Turning to `Cc1cc(COc2cc3[nH]c(CNC(=O)N4CCC(F)C4)cc3cc2Cl)on1` (racemic) [Compound 373, (R)-N-((5-chloro-6-((3-methylisoxazol-5-yl)methoxy)-1H-indol-2-yl)methyl)-3-fluoropyrrolidine-1-carboxamide and (S)-N-((5-chloro-6-((3-methylisoxazol-5-yl)methoxy)-1H-indol-2-yl)methyl)-3-fluoropyrrolidine-1-carboxamide], the IC50 came to 0.472 µM.
The result for `Cc1cc(COc2cc3[nH]c(CNC(=O)N4CCCC4C(F)F)cc3cc2Cl)on1` (racemic) [Compound 375, (S)-N-((5-chloro-6-((3-methylisoxazol-5-yl)methoxy)-1H-indol-2-yl)methyl)-2-(difluoromethyl)pyrrolidine-1-carboxamide and (R)-N-((5-chloro-6-((3-methylisoxazol-5-yl)methoxy)-1H-indol-2-yl)methyl)-2-(difluoromethyl)pyrrolidine-1-carboxamide] reads 0.948 µM; that for `CC(NC(=O)C1(C)CC1)c1cc2cc(Cl)c(OCc3ccon3)cc2[nH]1` (racemic) [Compound 395, (S)-N-(1-(5-chloro-6-(isoxazol-3-ylmethoxy)-1H-indol-2-yl)ethyl)-1-methylcyclopropane-1-carboxamide and (R)-N-(1-(5-chloro-6-(isoxazol-3-ylmethoxy)-1H-indol-2-yl)ethyl)-1-methylcyclopropane-1-carboxamide], 2.14 µM; that for `CC1(C(=O)NCc2cc3cc(Cl)c(OCC4COCCO4)cc3[nH]2)CC1` (racemic) [Compound 396, (S)-N-((6-((1,4-dioxan-2-yl)methoxy)-5-chloro-1H-indol-2-yl)methyl)-1-methylcyclopropane-1-carboxamide and (R)-N-((6-((1,4-dioxan-2-yl)methoxy)-5-chloro-1H-indol-2-yl)methyl)-1-methylcyclopropane-1-carboxamide], 0.644 µM.
Take `CC1(C(=O)NCc2cc3cc(Cl)c(OCCC4CCCO4)cc3[nH]2)CC1` (racemic) [Compound 397, (S)-N-((5-chloro-6-(2-(tetrahydrofuran-2-yl)ethoxy)-1H-indol-2-yl)methyl)-1-methylcyclopropane-1-carboxamide and (R)-N-((5-chloro-6-(2-(tetrahydrofuran-2-yl)ethoxy)-1H-indol-2-yl)methyl)-1-methylcyclopropane-1-carboxamide]: the IC50 was found to be 0.492 µM.
With `Cc1cc(COc2cc3[nH]c(CNC(=O)C(C)F)cc3cc2Cl)on1` (racemic) [Compound 442, (S)-N-((5-chloro-6-((3-methylisoxazol-5-yl)methoxy)-1H-indol-2-yl)methyl)-2-fluoropropanamide and (R)-N-((5-chloro-6-((3-methylisoxazol-5-yl)methoxy)-1H-indol-2-yl)methyl)-2-fluoropropanamide], the IC50 turned out to be 0.0752 µM.
Turning to `CC(C#N)C(=O)NCc1cc2cc(Cl)c(OCc3cscn3)cc2[nH]1` (racemic) [Compound 445, (S)-N-((5-chloro-6-(thiazol-4-ylmethoxy)-1H-indol-2-yl)methyl)-2-cyanopropanamide and (R)-N-((5-chloro-6-(thiazol-4-ylmethoxy)-1H-indol-2-yl)methyl)-2-cyanopropanamide], the concentration for half-maximal inhibition (IC50) worked out at 0.444 µM.
In the case of `Cc1cc(COc2cc3[nH]c(CNC(=O)C(C)C#N)cc3cc2Cl)on1` (racemic) [Compound 486, (S)-N-((5-chloro-6-((3-methylisoxazol-5-yl)methoxy)-1H-indol-2-yl)methyl)-2-cyanopropanamide and (R)-N-((5-chloro-6-((3-methylisoxazol-5-yl)methoxy)-1H-indol-2-yl)methyl)-2-cyanopropanamide], the IC50 amounted to 0.387 µM.
The result for `CC(F)C(=O)NCc1cc2cc(Cl)c(OCc3cscn3)cc2[nH]1` (racemic) [Compound 511, (R)-N-((5-chloro-6-(thiazol-4-ylmethoxy)-1H-indol-2-yl)methyl)-2-fluoropropanamide and (S)-N-((5-chloro-6-(thiazol-4-ylmethoxy)-1H-indol-2-yl)methyl)-2-fluoropropanamide] reads 0.0861 µM; that for `Cc1cc(COc2cc3[nH]c(CNC(=O)[C@@H]4CCC[C@H]4O)cc3cc2Cl)on1` (racemic) [Compound 534, (1R,2R)-N-((5-chloro-6-((3-methylisoxazol-5-yl)methoxy)-1H-indol-2-yl)methyl)-2-hydroxycyclopentane-1-carboxamide and (1S,2S)-N-((5-chloro-6-((3-methylisoxazol-5-yl)methoxy)-1H-indol-2-yl)methyl)-2-hydroxycyclopentane-1-carboxamide], 3.04 µM; that for `Cc1cc(COc2cc3[nH]c(CNC(=O)C(C)C4COC4)cc3cc2Cl)on1` (racemic) [Compound 545, (S)-N-((5-chloro-6-((3-methylisoxazol-5-yl)methoxy)-1H-indol-2-yl)methyl)-2-(oxetan-3-yl)propenamide and (R)-N-((5-chloro-6-((3-methylisoxazol-5-yl)methoxy)-1H-indol-2-yl)methyl)-2-(oxetan-3-yl)propanamide], 3.54 µM.
